Measured values published in patent US7939530B2, “Treatment of lymphoma using 10-propargyl-10-deazaaminopterin and gemcitabine” (Sloan-Kettering Institute for Cancer Research, priority 2004, dated 2011).
Where “and” joins values, the source holds several entries; their conditions need not be identical. Equal entries are not always repeated.

Experiments:
[1] = tested on: SKI-DLCL-1 (Diffuse large B Cell) cell line; experiment: Growth inhibition in vitro (XTT or Alamar blue); type: cell-based, human
Protocol: A PDX preparation prepared in accordance with Example 1 and an MTX preparation were tested for cytotoxicity against a panel of five human lymphoma cell lines. Experiments were performed as described previously. (Sirotnak et al., Cancer Chemother. […] Colorimetric dye (XTT or Alamar blue) was added for an addition period of time (XTT dye, 6 hours, Alamar blue, 24 hours). Each plate was then read on an automated plate reader at 590 nm. The percentage of inhibition was calculated as growth of cells exposed to drug divided by growth of controls (cells incubated with media only). […] Experiments were repeated as lest three times.

[2] = tested on: human HT (diffuse large B cell) non-Hodgkin's lymphoma xenografts; experiment: Subcutaneous lymphoma xenograft treatment; type: in vivo
Source text: (§1) In order to study the effects of PDX on lymphoma growth in vivo, subcutaneous transplantation models in NOD/SCID mice were generated using three established human lymphoma cell line representative of aggressive transformed FL (RL) and de novo extranodal DLBCL (HT; SKI-DLCL-1) histologies. Six to eight week old non-obsese diabetic severe combined immunodeficient (NOD/SCID) mice (Jackson Laboratories, Bar Harbor, Me.) were sub-lethally irradiated with […] from a gamma source and inoculated with 10×10^6 lymphoma cells via a subcutaneous route. When tumor volumes approached 100 mm^3, mice were divided into three groups, averaging 3-8 mice per group. Mice were treated with normal saline or the maximum tolerated dose (MTD) of MTX (40 mg/kg) or PDX (60 mg/kg) via an intraperitoneal route twice weekly for two weeks (four total doses). […] (Sirotnak, et al., Cancer Chemother. Pharmacol. 12: 26-30 (1984); Sirotnak et al., Cancer Chemother. Pharmacol. 42: 313-318 (1998).
(§2) Engraftment rates in this experiment ranged from 80 to 90%. Palpable tumors formed under the skin approximately 7-10 days after inoculation and were readily measurable with calipers. Mice with subcutaneous lymphoma growths survived an average of 40-50 days after inoculation.

[3] = tested on: human RL (transformed follicular) non-Hodgkin's lymphoma xenografts; experiment: Subcutaneous lymphoma xenograft treatment; type: in vivo; settings: MTX 40 mg/kg
Source text: as §1, §2

[4] = tested on: human SKI-DLCL-1 (de novo diffuse large B cell) non-Hodgkin's lymphoma xenografts; experiment: Subcutaneous lymphoma xenograft treatment; type: in vivo; settings: MTX 40 mg/kg
Source text: as §1, §2

[5] = MTX 40 mg/kg, PDX 60 mg/kg ip twice weekly for two weeks
[6] = PDX 60 mg/kg ip twice weekly for two weeks

SMILES: C#CCC(Cc1cnc2nc(N)nc(N)c2n1)c1ccc(C(=O)N[C@@H](CCC(=O)O)C(=O)O)cc1 (stereo partly drawn) [PDX, 10-Propargyl-10-deazaminopterin]
- IC50 ([1]; SKI-DLCL-1, 5 day continuous drug exposure): 5.1 ± 0.1 nM
- EC50 in SKI-DLCL-1 relative to other B-cell lymphoma cell lines ([1]; roughly, fold greater): 2 to 3 fold
- Complete Regression (no/total) ([2]; MTX 40 mg/kg, PDX 60 mg/kg): 8 of 9 and 8/9
- complete tumor regression (% of mice) ([2]; MTX 40 mg/kg, PDX 60 mg/kg): 89%
- Avg change in Tumor Volume (mm^3 ± SE) [2, 5]: −95 ± 0.8 mm^3
- Weight Change (%) [2, 5]: −8.9%
- Avg Tumor Diameter (mm ± SE) ([2]; MTX 40 mg/kg, PDX 60 mg/kg, at the nadir of tumor regression): 0.5 mm and 0.5 ± 0.3 mm
- Tumor Regression (%) ([2]; PDX 60 mg/kg, average tumor regression): 99%
- Complete Regression (no/total) ([3]; PDX 60 mg/kg): 5 of 9 and 5/9
- tumor regressions (% of mice) ([3]; PDX 60 mg/kg): 57%
- Avg Tumor Diameter (mm ± SE) [3, 6]: 2.7 ± 1.1 mm
- Avg change in Tumor Volume (mm^3 ± SE) [3, 6]: −46 ± 34 mm^3
- Weight Change (%) [3, 6]: −11.1%
- Complete Regression (no/total) ([4]; PDX 60 mg/kg): 3 of 10 and 3/10
- tumor regressions / complete remissions (% of mice) ([4]; PDX 60 mg/kg): 30%
- Avg Tumor Diameter (mm ± SE) [4, 6]: 3.5 ± 0.7 mm
- Avg change in Tumor Volume (mm^3 ± SE) [4, 6]: −81 ± 16 mm^3
- Weight Change (%) [4, 6]: −1.2%
